Tested on: mice
Assay: Approximate acute toxicity after oral administration
Format: in vivo
Details: single dose, observation period 14 days; for animals died: 250 mg/kg
Procedure: The approximate acute toxicity of the test compounds was determined on groups of 5 mice after oral administration of a single dose (observation period: 14 days).

SMILES | animals died | Approximate acute toxicity [mg/kg]
CN(C)c1nc2nc(N3CCNCC3)nc(N(C)C)c2nc1Cl [B, 6-chloro-4,7-bis(dimethylamino)-2-piperazino-pteridine] | 0 out of 5 | > 250
CN(C)c1nc2nc(N3CCNCC3)nc(N(C)C)c2nc1SCc1ccccc1 [C, 6-benzylthio-4,7-bis-(dimethylamino)-2-piperazino-pteridine] | 0 out of 5 | > 250
c1ccc(CSc2nc3c(N4CCOCC4)nc(N4CCNCC4)nc3nc2N2CCOCC2)cc1 [Compound A, 6-benzylthio-4,7-dimorpholino-2-piperazino-pteridine] | 0 out of 5 | > 250
CSc1nc2c(N3CC[S+]([O-])CC3)nc(N3CCNCC3)nc2nc1NCc1ccccc1 [D, 7-benzylamino-6-methylthio-4-(1-oxido-thiomorpholino)-2-piperazino-pteridine] | 0 out of 5 | > 250
CN(C)c1nc(N2CCNCC2)nc2nc(NCc3ccccc3)c(Cl)nc12 [E, 6-chloro-2-piperazino-4-dimethylamino-7-benzylamino-pteridine] | 0 out of 5 | > 250

Reference: US4560685A, “2-Piperazino-pteridines useful as antithrombotics and antimetastatics” (Dr. Karl Thomae Gesellschaft mit beschrankter Haftung, priority 1984, dated 1985)
